Measurements published in PMC9600929, “Structural and Mechanistic Bases of Viral Resistance to HIV-1 Capsid Inhibitor Lenacapavir” (mBio, 2022).
Where “and” joins values, the source holds several entries; their conditions need not be identical. Equal entries are not always repeated.

Assays:
HIV-1NL4-3 Q67H/N74D CA = assay: microbe, parasite or virus in culture; assay type: cell-based; conditions: for EC50: Human immunodeficiency virus 1, MT4
HIV-1(M66I CA) = assay type: cell-based; conditions: early stage antiviral activity
HIV-1NL4-3 Q67H CA = assay: microbe, parasite or virus in culture; assay type: cell-based; conditions: for EC50: Human immunodeficiency virus 1, MT4
[1] = target: cross-linked HIV-1 CA(WT) hexamer (Human immunodeficiency virus type 1 group M subtype B, UniProt P12493, A146C/E177C/M317A/W316A); assay: SPR binding to cross-linked CA(WT) hexamers
[2] = target: T1, cross-linked HIV-1 CA(Q67H/N74D) hexamer (Human immunodeficiency virus type 1 group M subtype B, UniProt P12493, A146C/E177C/M317A/N206D/Q199H/W316A); assay: biochemical; assay type: binding
T1 construct: Expression, purification and assembly of recombinant CA; made in house; host or cells: E. coli BL21-DE3 (pET3a)

HIV-1NL4-3 Q67H/K70R CA = assay: microbe, parasite or virus in culture; assay type: cell-based; conditions: for EC50: Human immunodeficiency virus 1, MT4, HIV-1NL4-3 Q67H/K70R CA, MT-4 cells, mean ± SD
MT4 cells = assay: in vitro; assay type: cell-based; conditions: MT4 cells, 2 days, CellTiter-Glo
Protocol: (§1) MT4 cells in complete RPMI were mixed with the indicated concentrations of compounds on 96-well plates (1 × 10^4 cells per well). Cells were kept in a humidified 37°C incubator for 2 days. The effect of test compounds on cell viability was measured using CellTiter-Glo (Promega, G7570).

in vitro = assay type: cell-based; conditions: human; from cytotoxicity (Fig. S7) and antiviral activity (Fig. 5C); read-out: selectivity index
Protocol: as §1

HIV-1NL4-3 WT CA = assay: microbe, parasite or virus in culture; assay type: cell-based; conditions: Human immunodeficiency virus 1, MT4
HIV-1NL4-3 N74D CA = assay: microbe, parasite or virus in culture; assay type: cell-based; conditions: for EC50: Human immunodeficiency virus 1, MT4
HIV-1 nuclear import = tested on: HIV-1 nuclear import; design: method as in PMID 32612233, PMID 31501601, PMID 33060363; conditions: during virus ingress; cited from earlier work
[3] = target: cross-linked HIV-1 CA(Q67H) hexamer (Human immunodeficiency virus type 1 group M subtype B, UniProt P12493, A146C/E177C/M317A/Q199H/W316A); assay: SPR binding to cross-linked CA(Q67H) hexamers
[4] = tested on: HIV-1 reverse transcription; design: method as in PMID 32612233, PMID 31501601, PMID 33060363; conditions: during virus ingress; cited from earlier work
[5] = target: cross-linked HIV-1 CA(N74D) hexamer (Human immunodeficiency virus type 1 group M subtype B, UniProt P12493, A146C/E177C/M317A/N206D/W316A); assay: SPR binding to cross-linked CA(N74D) hexamers
HIV-1 integration = tested on: HIV-1 integration; design: method as in PMID 32612233, PMID 31501601, PMID 33060363; conditions: during virus ingress; cited from earlier work
[6] = WT compared to WT CA (reference)

With `CC(C)(C#Cc1ccc(-c2ccc(Cl)c3c(NS(C)(=O)=O)nn(CC(F)(F)F)c23)c([C@H](Cc2cc(F)cc(F)c2)NC(=O)Cn2nc(C(F)(F)F)c3c2CCCC3)n1)S(C)(=O)=O` [KFA-012] as the compound, how does the “Fold increase of KFA-012 potency versus LEN potency” value (“Fold increase” for short) (HIV-1NL4-3 Q67H/N74D CA; HIV-1NL4-3 Q67H/N74D CA) read?
Its value is 2.6 fold.

What about the EC50 (HIV-1NL4-3 Q67H/N74D CA) of the same compound?
Its EC50 is 9.18 nM.

And the “susceptibility of the virus to the inhibitor” value (HIV-1(M66I CA))?
The value was “fully resistant”.

What about the “Fold increase” value (HIV-1NL4-3 Q67H CA; HIV-1NL4-3 Q67H CA) of the same compound?
The value was 1.8 fold.

What about the EC50 (HIV-1NL4-3 Q67H CA) of the same compound?
Its EC50 is 0.335 ± 0.01 nM.

And the “improved binding affinity compared with parental LEN” value ([1]; CA(WT) hexamer, SPR)?
Its value is ~ 2 fold.

And the “improved binding affinity compared with parental LEN” value ([2]; CA(Q67H/N74D) hexamer, SPR)?
Its value is ~ 2 fold.

And the “Fold increase” value (HIV-1NL4-3 Q67H/K70R CA; HIV-1NL4-3 Q67H/K70R CA)?
Its value is ~ 1.7 fold.

What about the EC50 (HIV-1NL4-3 Q67H/K70R CA) of the same compound?
The EC50 was 0.883 ± 0.17 nM.

And the “compound concentrations with adverse effects on cell viability” value (MT4 cells)?
Its value is > 3 µM.

And the “concentration up to which no cytotoxicity was observed” value (MT4 cells)?
Its value is “up to 781 nM”.

And the selectivity ratio at 2 days (in vitro)?
Its selectivity ratio at 2 days is > 10000.

What about the EC50 (HIV-1NL4-3 WT CA) of the same compound?
The EC50 was 0.071 ± 0.006 nM.

And the EC50 (HIV-1NL4-3 N74D CA)?
Its EC50 is 0.633 ± 0.014 nM.

Which EC50 (HIV-1NL4-3 Q67H/N74D CA) does the source give for `CC(C)(C#Cc1ccc(-c2ccc(Cl)c3c(NS(C)(=O)=O)nn(CC(F)(F)F)c23)c([C@H](Cc2cc(F)cc(F)c2)NC(=O)Cn2nc(C(F)(F)F)c3c2C(F)(F)[C@@H]2C[C@H]32)n1)S(C)(=O)=O` [LEN, Lenacapavir] here?
The EC50 was 24.2 nM.

And the EC50 (HIV-1 nuclear import)?
Its EC50 is 0.5 to 5 nM.

And the “susceptibility of the virus to the inhibitor” value (HIV-1(M66I CA))?
Its value is “fully resistant”.

And the “association rate constant (kon)” value ([3]; CA (Q67H), mean ± SD)?
The value was 6.4 ± 1.1 x 10^4 M^-1s^-1.

What about the “dissociation rate constant (koff)” value ([3]; CA (Q67H), mean ± SD) of the same compound?
Its value is 7.3 ± 1.0 x 10^-5 s^-1.

And the Kd ([3]; CA (Q67H), mean ± SD, read-out: equilibrium dissociation constant (KD))?
The Kd was 1.2 nM.

What about the koff fold change ([3]; Q67H CA compared to WT CA) of the same compound?
The koff fold change was 5 fold.

And the kon fold change ([3]; Q67H CA compared to WT CA)?
The kon fold change was 0.9 fold.

What about the EC50 (HIV-1NL4-3 Q67H CA) of the same compound?
The EC50 was 0.611 ± 0.01 nM.

What about the “decreased potency of the inhibitor with respect to the CA variant” value (HIV-1NL4-3 Q67H CA; Q67H CA variant versus WT) of the same compound?
Its value is 7 fold.

And the “association rate constant (kon)” value ([1]; CA (WT), mean ± SD)?
The value was 7.0 ± 1.6 x 10^4 M^-1s^-1.

What about the “dissociation rate constant (koff)” value ([1]; CA (WT), mean ± SD) of the same compound?
The value was 1.5 ± 0.2 x 10^-5 s^-1.

And the Kd ([1]; CA (WT), mean ± SD, three independent experiments, read-out: equilibrium dissociation constant (KD))?
The Kd was 0.23 ± 0.08 nM.

What about the KD fold change [1, 6] of the same compound?
Its KD fold change is 1 fold.

What about the koff fold change [1, 6] of the same compound?
The koff fold change was 1 fold.

What about the kon fold change [1, 6] of the same compound?
Its kon fold change is 1 fold.

What about the EC50 [4] of the same compound?
Its EC50 is 5 to 50 nM.

And the “association rate constant (kon)” value ([2]; CA (Q67H/N74D), mean ± SD)?
The value was 3.0 ± 0.9 x 10^4 M^-1s^-1.

And the “dissociation rate constant (koff)” value ([2]; CA (Q67H/N74D), mean ± SD)?
The value was 1.1 ± 0.5 x 10^-3 s^-1.

And the Kd ([2]; CA (Q67H/N74D), mean ± SD, read-out: equilibrium dissociation constant (KD))?
Its Kd is 34.1 nM.

And the koff fold change ([2]; Q67H/N74D CA compared to WT CA)?
The koff fold change was 73 fold.

And the kon fold change ([2]; Q67H/N74D CA compared to WT CA)?
Its kon fold change is 0.4 fold.

What about the “association rate constant (kon)” value ([5]; CA (N74D), mean ± SD) of the same compound?
The value was 3.0 ± 0.3 x 10^4 M^-1s^-1.

What about the “dissociation rate constant (koff)” value ([5]; CA (N74D), mean ± SD) of the same compound?
The value was 1.4 ± 0.02 x 10^-4 s^-1.

And the Kd ([5]; CA (N74D), mean ± SD, read-out: equilibrium dissociation constant (KD))?
Its Kd is 4.6 nM.

And the koff fold change ([5]; N74D CA compared to WT CA)?
The koff fold change was ~ 10 fold and 9 fold.

What about the kon fold change ([5]; N74D CA compared to WT CA) of the same compound?
The kon fold change was 0.4 fold.

What about the “adverse effect on association rate constant” value ([5]; N74D CA versus WT CA, stated as fold adverse effect) of the same compound?
The value was ~ 2 fold.

What about the EC50 (HIV-1NL4-3 Q67H/K70R CA) of the same compound?
The EC50 was 1.5 ± 0.023 nM.

What about the EC50 (HIV-1NL4-3 WT CA) of the same compound?
Its EC50 is 0.091 ± 0.01 nM.

And the EC50 (HIV-1 integration)?
The EC50 was 0.05 to 0.5 nM.

What about the EC50 (HIV-1NL4-3 N74D CA) of the same compound?
Its EC50 is 0.902 ± 0.027 nM.

What about the “decreased virus susceptibility to the inhibitor” value (HIV-1NL4-3 N74D CA; {}) of the same compound?
Its value is ~ 10 fold.
